Experimental data published in ChEMBL document CHEMBL5674860, “Optimized Dual-Glo Assay to identify co-culture-induced drug vulnerabilities in 3D CRC models” (2024).
Where “and” joins values, the source holds several entries; their conditions need not be identical. Identical values can stand only once.

What was measured:
Assay type in all cases: functional, Homo sapiens
Set-up in all cases: dose or concentration left out as unconfirmed
Colon cancer organoid [1] = assay: Optimized Dual-Glo assay to identify co-culture induced drug vulnerabilities using donated chemical probes and chemogenomics kinase set in O14 CRC organoid and F14 CAF mono and co-culture. […] Cell viability is reported both mono and co-culture models.
Colon cancer organoid [2] = assay: Optimized Dual-Glo assay to identify co-culture induced drug vulnerabilities using donated chemical probes and chemogenomics kinase set in O20 CRC organoid and F20 CAF mono and co-culture. […] Cell viability is reported both mono and co-culture models.
Colon cancer organoid [3] = assay: Optimized Dual-Glo assay to identify co-culture induced drug vulnerabilities using donated chemical probes and chemogenomics kinase set in O06 CRC organoid and F06 CAF mono and co-culture. […] Cell viability is reported both mono and co-culture models.
[4] = Culture type Co-Culture, Transduced with Lucferase2-P2A-EGFP lentivirus
[5] = Culture type Co-Culture, Transduced with Renilla-dsRed lentivirus
[6] = Culture type Mono-Culture, Transduced with Lucferase2-P2A-EGFP lentivirus
[7] = Culture type Mono-Culture, Transduced with Renilla-dsRed lentivirus

| SMILES | Cell Viability (Colon cancer organoid [1]; [4]) | Cell Viability (Colon cancer organoid [1]; [5]) | Cell Viability (Colon cancer organoid [1]; [6]) | Cell Viability (Colon cancer organoid [1]; [7]) | Cell Viability (Colon cancer organoid [2]; [4]) | Cell Viability (Colon cancer organoid [2]; [5]) | Cell Viability (Colon cancer organoid [2]; [6]) | Cell Viability (Colon cancer organoid [2]; [7]) | Cell Viability (Colon cancer organoid [3]; [4]) | Cell Viability (Colon cancer organoid [3]; [5]) | Cell Viability (Colon cancer organoid [3]; [6]) | Cell Viability (Colon cancer organoid [3]; [7]) |
| --- | --- | --- | --- | --- | --- | --- | --- | --- | --- | --- | --- | --- |
| CC(=O)N1CCC(c2ccc(C(=O)NC3=NCCN3)cc2C(F)(F)F)CC1 [BI 0054] | 129.436% | 116.761% | 105.472% | 102.083% | 121.714% | 122.015% | 116.125% | 107.845% | 128.003% | 143.254% | 114.863% | 104.942% |
| O=C(NNS(=O)(=O)c1ccccc1F)c1cc(F)cc(-c2ccccn2)c1 [WM-1119] | 33.671% | 171.323% | 39.6176% | 103.912% | 68.3772% | 152.012% | 102.739% | 96.1932% | 97.0333% | 108.11% | 61.3742% | 91.757% |
| CC(=O)c1cc(-c2ccccc2OCC2CC2)c2ncccn12 | 80.3991% | 93.1948% | 108.194% | 100.736% | 90.8424% | 121.201% | 99.1369% | 90.8457% | 107.249% | 181.775% | 93.2808% | 95.3402% |
| Cc1cc2c(cc1N1C(=O)c3cccc4c(CCCO)ccc(c34)C1=O)n(C)c(=O)n2C | 46.4165% | 127.225% | 64.4307% | 101.303% | 35.0091% | 231.762% | 20.745% | 97.4451% | 83.3962% | 164.269% | 66.8328% | 103.172% |
| CNc1nc(-c2ccc3c(N)n[nH]c3c2)cc(N2C[C@@H](C(=O)NC3CCCCC3)CC[C@H]2C)n1 | 75.802% | 81.9858% | 103.482% | 52.6977% | 51.6899% | 121.574% | 29.0897% | 81.2947% | 59.8926% | 53.4401% | 68.2825% | 54.6916% |
| Cl.Cn1cncc1[C@](O)(COc1ccc(C#N)cc1-c1ccc(OC(F)(F)F)cc1)c1ccc(C#N)cc1 | 26.9606% | 99.4366% | 53.0011% | 61.9663% | 15.3114% | 150.357% | 17.164% | 65.8997% | 31.9269% | 197.169% | 11.7395% | 58.9843% |
| CC(=O)Nc1c(F)cc(C(=O)N[C@H]2CC[C@H](O)CC2)cc1O[C@@H](C)c1ccccc1 [GSK046] | 94.8329% | 149.721% | 98.5047% | 138.141% | 117.929% | 118.66% | 59.393% | 129.379% | 141.493% | 157.689% | 89.308% | 140.24% |
| Cc1ncsc1-c1ccc(CNC(=O)[C@@H]2C[C@@H](O)CN2C(=O)[C@@H](NC(=O)CCCCNC(=O)c2ccc(-c3ccc(N4CCN(C)CC4)c(NC(=O)c4c[nH]c(=O)cc4C(F)(F)F)c3)cc2)C(C)(C)C)cc1 | 94.9121% | 103.946% | 89.8204% | 93.3904% | 171.817% | 86.697% | 106.449% | 104.541% | 81.8894% | 85.2238% | 101.813% | 95.3362% |
| COc1ccc2c(O[C@@H]3C[C@H]4C(=O)N[C@]5(C(=O)O)CC5/C=C\CCCCC[C@H](NC(=O)OC5CCCC5)C(=O)N4C3)cc(-c3csc(NC(=O)C(C)C)n3)nc2c1C (stereo partly specified) [BI 1230] | 105.071% | 113.929% | 106.581% | 104.774% | 95.5192% | 162.279% | 102.506% | 120.15% | 113.549% | 148.301% | 94.169% | 100.65% |
| COc1cc(-c2cn([C@H]3CCc4ccccc4N(CC(F)(F)F)C3=O)nn2)ccc1-n1ccc(C)n1 | 109.774% | 96.1466% | 102.384% | 99.9901% | 70.0794% | 119.033% | 80.8006% | 95.6811% | 93.4988% | 122.107% | 86.5665% | 106.482% |
| CC(=O)N1CCC(c2ccc(C(=O)NC(=N)N)cc2C(F)(F)F)CC1 [BI 9627] | 82.2007% | 132.273% | 72.3529% | 98.3882% | 96.0735% | 101.417% | 111.956% | 89.7357% | 150.087% | 189.046% | 112.79% | 98.1409% |
| CN(C)C(=O)c1cc2cnc(Nc3ccc(N4CCNCC4)cn3)nc2n1C1CCCC1 [RIBOCICLIB] | 59.6816% | 144.098% | 62.61% | 96.4403% | 36.9577% | 144.514% | 20.5669% | 95.5583% | 54.2961% | 126.231% | 30.4641% | 111.56% |
| Cc1sc2c(c1C)C(c1ccc(Cl)cc1)=N[C@@H](CC(=O)OC(C)(C)C)c1nnc(C)n1-2 | 21.0352% | 390.207% | 21.1376% | 218.603% | 11.0659% | 145.881% | 17.1066% | 37.2064% | 24.0633% | 301.325% | 25.9077% | 273.458% |
| Cc1c(NC(=O)COc2ccc(Cl)cc2C(=O)c2cc(F)cc(C(F)(F)F)c2)ccc(C(=O)O)c1F [BI 2540] | 79.1363% | 91.7704% | 120.435% | 101.06% | 66.158% | 145.555% | 86.1051% | 111.497% | 131.143% | 97.0984% | 110.069% | 102.946% |
| O=C(NCC(=O)N1CCCC1)Nc1ccc2cnccc2c1 | 77.6259% | 126.417% | 75.4606% | 109.537% | 120.858% | 100.064% | 123.325% | 84.2387% | 80.3687% | 124.064% | 84.4387% | 94.1078% |
| COc1ccccc1C(=O)Nc1cc2c(cc1N1CCNCC1C)n(C)c(=O)n2C (stereo unspecified) | 109.979% | 135.305% | 100.033% | 95.8386% | 130.677% | 107.173% | 124.631% | 104.05% | 112.155% | 138.916% | 92.5462% | 113.336% |
| CCCCNNC(=O)c1ccc(Br)cc1 | 82.2147% | 109.67% | 123.977% | 94.4376% | 131.228% | 114.511% | 127.902% | 88.6471% | 113.204% | 110.004% | 101.234% | 117.719% |
| CCOc1cn(-c2ccc(F)cc2C)nc1C(=O)Nc1ccc(Oc2ccnc3cc(OC)c(OC)cc23)c(F)c1 | 102.771% and 90.3388% | 85.9243% and 77.553% | 131.662% and 123.945% | 95.388% and 87.085% | 230.831% and 191.214% | 78.4446% and 96.4847% | 106.501% and 84.8653% | 96.6073% and 93.6855% | 87.51% and 89.4828% | 84.5689% and 64.7371% | 86.2071% and 96.2779% | 101.871% and 88.7626% |
